Where a name gives a salt, the structure may show the parent alone. Read-outs that look alike come from different tables or passages of the source.
Columns and labels:
SCD transgenic mice = experiment: Fetal hemoglobin in SCD transgenic mouse model, F-reticulocytes and F-RBCs by flow cytometry; format: in vivo; conditions: oral, 10 or 50 mg/kg BID daily, measured by flow cytometry
Excerpt: FIG. 2B depicts the effect of Compound A on fetal hemoglobin in the transgenic mouse model.

[1] = test system: human hemoglobin transgenic mice (sickle cell disease model); experiment: Sickle cell mouse model, fetal hemoglobin induction in vivo; conditions: for increase in % F RBCs / increase in % F reticulocytes: 2 week dose period; for increase in % HbF protein: two weeks
Excerpt: A mouse model of sickle cell disease was utilized to measure the in vivo efficacy of Compound A previously shown to have potent in vitro activity in human primary erythroid progenitor cells derived from normal bone marrow or sickle cell patient peripheral blood mononuclear cells.
The in vivo activity of Compound A was investigated in the sickle cell mouse model in accordance with US/UK standards of animal care.
Male and female human hemoglobin transgenic mice [B6; 129-Hbatm1(HBA)Tow/Hbbtm2(HBG1,HBB*)Tow/J Mice (Jackson Laboratories, Me.)] were approximately 6-8 weeks old and weighed approximately 15-25 grams at the initiation of the studies. To the extent possible, groups were gender balanced and comprised of 6 mice.
Mice were administered vehicle (10% DMA/90% PEG400), 10 or 50 mg/kg Compound A twice daily (BID) by oral route five days per week, over a two week period.
At the end of the dosing period, mice were euthanized by CO2 asphyxiation and blood from the vena cava was collected into EDTA tubes for fetal hemoglobin analysis. % HbF protein was determined by high performance liquid chromatography and % F cells (HbF expressing erythrocytes) were determined by flow cytometry. The mouse monoclonal anti-human HbF antibody conjugated to APC (Life Technologies, Grand Island, N.Y.) was used to identify HbF expressing erythroid cells. The nuclear dye, syto16, (Life Technologies) was used to separate the reticulocyte and RBC populations. Protein and cellular data were collected on the Bio-Rad D10 analyzer (Bio-Rad, Benicia, Calif.) and the FACs Canto I (BD BioSciences, San Jose, Calif.) respectively. Flow cytometry data was analyzed with Flowjo v7 software (Treestar, Inc Ashland. Oreg.). Group mean and standard deviation were determined for the control and treatment groups. Data were graphed and analyzed using 1-Way ANOVA with Tukey post test (Graphpad Prism v5 [La Jolla, Calif.]).

human full length DNMT1 = human full length DNMT1 (Homo sapiens (Human), UniProt P26358); experiment: DNMT1 breaklight assay; format: biochemical; conditions: repeated experimental runs, read-out: average IC50 against DNMT1
human full length DNMT1, sequence (P26358 whole entry): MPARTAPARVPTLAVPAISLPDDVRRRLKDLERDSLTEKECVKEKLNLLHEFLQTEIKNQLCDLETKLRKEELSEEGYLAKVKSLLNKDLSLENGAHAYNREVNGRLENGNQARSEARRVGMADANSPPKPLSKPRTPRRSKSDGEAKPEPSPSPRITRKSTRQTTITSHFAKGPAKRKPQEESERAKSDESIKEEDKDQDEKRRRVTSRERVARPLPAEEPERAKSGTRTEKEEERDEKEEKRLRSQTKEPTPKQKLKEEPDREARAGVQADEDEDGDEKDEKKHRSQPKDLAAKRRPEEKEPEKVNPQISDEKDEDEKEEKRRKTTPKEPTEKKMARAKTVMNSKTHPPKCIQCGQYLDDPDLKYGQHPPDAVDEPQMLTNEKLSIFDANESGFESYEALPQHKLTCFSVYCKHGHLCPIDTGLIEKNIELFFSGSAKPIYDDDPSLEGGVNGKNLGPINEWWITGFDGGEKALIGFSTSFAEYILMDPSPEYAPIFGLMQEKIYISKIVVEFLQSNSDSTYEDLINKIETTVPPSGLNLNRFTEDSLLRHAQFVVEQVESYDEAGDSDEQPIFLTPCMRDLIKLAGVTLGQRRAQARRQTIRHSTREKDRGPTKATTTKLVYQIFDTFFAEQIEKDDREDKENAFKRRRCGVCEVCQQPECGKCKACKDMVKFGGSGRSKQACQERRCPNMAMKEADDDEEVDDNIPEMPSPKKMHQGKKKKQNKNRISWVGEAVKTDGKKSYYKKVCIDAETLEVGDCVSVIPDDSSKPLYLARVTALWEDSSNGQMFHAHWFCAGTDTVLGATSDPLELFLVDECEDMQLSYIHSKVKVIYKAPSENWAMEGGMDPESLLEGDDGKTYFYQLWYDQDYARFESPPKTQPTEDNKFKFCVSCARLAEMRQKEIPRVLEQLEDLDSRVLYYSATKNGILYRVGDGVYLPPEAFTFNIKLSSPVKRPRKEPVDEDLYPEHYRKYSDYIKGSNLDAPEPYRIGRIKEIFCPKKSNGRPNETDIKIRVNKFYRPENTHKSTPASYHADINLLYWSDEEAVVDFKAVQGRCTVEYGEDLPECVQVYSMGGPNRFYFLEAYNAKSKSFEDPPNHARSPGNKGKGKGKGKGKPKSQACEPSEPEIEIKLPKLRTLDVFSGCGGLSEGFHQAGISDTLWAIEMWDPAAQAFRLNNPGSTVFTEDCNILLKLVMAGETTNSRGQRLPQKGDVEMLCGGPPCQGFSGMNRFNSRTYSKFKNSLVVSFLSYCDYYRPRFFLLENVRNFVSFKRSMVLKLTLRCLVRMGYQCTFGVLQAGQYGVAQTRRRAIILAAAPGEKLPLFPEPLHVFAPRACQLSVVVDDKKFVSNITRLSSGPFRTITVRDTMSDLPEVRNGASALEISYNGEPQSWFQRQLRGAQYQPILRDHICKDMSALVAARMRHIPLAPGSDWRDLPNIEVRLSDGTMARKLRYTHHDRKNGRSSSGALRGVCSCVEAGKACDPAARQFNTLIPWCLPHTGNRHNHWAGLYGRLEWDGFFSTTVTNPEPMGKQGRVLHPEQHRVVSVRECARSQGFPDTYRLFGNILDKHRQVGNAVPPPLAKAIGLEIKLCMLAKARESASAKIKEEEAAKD
Description: DNMT1 breaklight in vitro assays were conducted in a total volume of 50 μl in a standard 384 well format, using black non-binding surface microplates (Corning 3575). Five μl of human full length DNMT1 (produced internally), used at a final concentration of 40 nM, was added to 5 μl of substrate mixture containing final concentrations of 125 nM hemi methylated oligonucleotide (synthesized at ATD Bio; 5′-FAM-[…]5[…]5G5TAGAT-3′ where 5=methyl deoxycitidine) and 2 μM ultrapure SAM (Cisbio #62SAHZLD). Negative control wells used 5 μl of DNMT1 and 5 μl of oligonucleotide but 0 μM SAM. All reagents were made up in 1× assay buffer (20 mM Tris pH 6.8, 25 mM NaCl, 0.5 mM MgCl2, 0.01% Triton X100 and 1 mM DTT). The reaction was incubated at 26° C. for 45 min and then stopped with the addition of 40 μl detection reagent. Detection reagent, made up in 1× Gla assay buffer (20 mM Tris pH 8.0, 80 mM NaCl, 0.75 mM MgCl2, 0.01% Triton X100 and 1 mM DTT) has a final concentration of 100 μM SAH (Sigma #A9384) and 0.0008 units/μl Gla1 restriction endonuclease (Sibenzyme #E494). Following addition of the detection reagent the plate was incubated in the dark at room temperature for 5 hr. Fluorescence intensity was then measured on the PHERAstar FS (BMG Labtech) at Ex 485 nm and Em 520 nm, with a gain of 400 and an integration time of 100 ms.

human DNMT3a/3l = human DNMT3a/3l (Homo sapiens (Human), UniProt Q9Y6K1); experiment: DNMT3a/3l breaklight assay; format: biochemical
human DNMT3a/3l, sequence (Q9Y6K1 whole entry, looked up): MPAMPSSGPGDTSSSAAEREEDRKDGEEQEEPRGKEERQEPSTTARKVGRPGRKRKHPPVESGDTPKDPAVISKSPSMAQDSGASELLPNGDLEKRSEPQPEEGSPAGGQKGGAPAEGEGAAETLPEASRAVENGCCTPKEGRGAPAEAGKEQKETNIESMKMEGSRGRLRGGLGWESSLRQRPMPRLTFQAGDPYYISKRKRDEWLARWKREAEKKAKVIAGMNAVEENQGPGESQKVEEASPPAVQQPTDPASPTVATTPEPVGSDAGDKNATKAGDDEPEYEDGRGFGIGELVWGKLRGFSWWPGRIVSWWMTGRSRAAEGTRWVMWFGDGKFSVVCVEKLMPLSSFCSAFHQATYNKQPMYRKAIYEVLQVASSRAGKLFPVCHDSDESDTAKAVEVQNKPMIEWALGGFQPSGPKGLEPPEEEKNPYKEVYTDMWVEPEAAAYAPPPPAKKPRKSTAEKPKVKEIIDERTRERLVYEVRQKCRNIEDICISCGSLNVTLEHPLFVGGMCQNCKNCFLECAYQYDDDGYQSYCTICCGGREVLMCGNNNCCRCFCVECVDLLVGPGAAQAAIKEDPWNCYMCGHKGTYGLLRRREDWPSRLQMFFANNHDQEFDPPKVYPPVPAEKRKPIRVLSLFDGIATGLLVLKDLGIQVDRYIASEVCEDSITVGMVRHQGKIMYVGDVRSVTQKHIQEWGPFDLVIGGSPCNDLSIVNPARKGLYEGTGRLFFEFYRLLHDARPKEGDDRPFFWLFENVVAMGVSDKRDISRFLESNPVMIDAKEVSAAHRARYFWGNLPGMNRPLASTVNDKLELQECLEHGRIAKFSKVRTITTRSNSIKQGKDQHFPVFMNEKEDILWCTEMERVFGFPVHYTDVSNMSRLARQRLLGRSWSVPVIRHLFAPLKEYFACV
human DNMT3a/3l, sequence (Q9UJW3 whole entry partner, looked up): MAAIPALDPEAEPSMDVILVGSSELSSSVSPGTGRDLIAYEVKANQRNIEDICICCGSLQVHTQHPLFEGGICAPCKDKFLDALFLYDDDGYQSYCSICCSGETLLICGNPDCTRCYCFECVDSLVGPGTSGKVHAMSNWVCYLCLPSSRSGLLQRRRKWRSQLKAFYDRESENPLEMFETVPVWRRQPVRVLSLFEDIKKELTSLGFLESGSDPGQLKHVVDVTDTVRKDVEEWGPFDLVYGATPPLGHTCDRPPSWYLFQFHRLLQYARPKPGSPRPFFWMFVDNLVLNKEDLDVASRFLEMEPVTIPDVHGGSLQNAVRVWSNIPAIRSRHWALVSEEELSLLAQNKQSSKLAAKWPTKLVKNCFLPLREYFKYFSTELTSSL
Description: DNMT3a/3l Breakliqht Assay
DNMT3a/3l breaklight in vitro assays were conducted in a total volume of 50 μl in a standard 384 well format, using black non-binding surface microplates (Corning #3575). […] Negative control wells used 5 μl of DNMT3a/3l and 5 μl of oligonucleotide but also included 200 μM SAH. All reagents were made up in 1× assay buffer (20 mM Tris pH 7.4, 100 mM NaCl, 1.5 mM EDTA, 0.1 mM MgCl2, 1 mM CHAPS and 1 mM DTT). The reaction was incubated at 37° C. for 90 min and then stopped with the addition of 40 μl detection reagent. Detection reagent, made up in 1× Gla assay buffer (20 mM Tris pH 8.0, 80 mM NaCl, 0.75 mM MgCl2, 0.01% Triton X100 and 1 mM DTT) has a final concentration of 200 μM SAH (Sigma #A9384) and 0.0008 units/μl Gla1 restriction endonuclease (Sibenzyme #E494). Following addition of the detection reagent the plate was incubated in the dark at room temperature for 5 hr. Fluorescence intensity was then measured on the PHERAstar FS (BMG Labtech) at Ex 485 nm and Em 520 nm, with a gain of 400 and an integration time of 100 ms.

DNMT3B = DNMT3B (Homo sapiens (Human), UniProt Q9UBC3); experiment: DNMT3B breaklight assay; format: biochemical
MV-4-11 AML cells = experiment: MV-4-11 cell proliferation assay (CellTiter-Glo, 6 days); format: cell-based; conditions: Homo sapiens, MV4-11, 144 h; 6 days treatment; binning as pXC50; read-out: MV4-11 Anti-proliferative activity (EC50 category)
Description: MV-4-11 Anti-Proliferative Activity (pEC50 Category)
Cell proliferation assay. Optimal cell seeding density was determined empirically for MV-4-11 AML cells by examining the growth of a wide range of seeding densities in a 384-well format to identify conditions that permitted maximal and continued proliferation for 6 days. MV-4-11 cells were plated in duplicate plates 24 hours before treatment with a 20-point two-fold dilution series of compound or 0.15% DMSO. Plates were incubated for 6 days at 37° C. in 5% CO2. Cells were then lysed with CellTiter-Glo (CTG) (Promega) and chemiluminescent signal was detected with an appropriate microplate reader. In addition, an untreated plate of cells was harvested at the time of compound addition (T0) to quantify the initial cell density. CTG values obtained after 6 days of treatment were expressed as a percent of the T0 value and plotted against compound concentration. Data were fit with a four parameter equation to generate a concentration response curve from which growth IC50 values were calculated.

[2] = read-out: DNMT3A Breaklight IC50
[3] = repeated experimental runs, read-out: average IC50, DNMT3A breaklight assay
[4] = read-out: DNMT3B Breaklight IC50
[5] = repeated experimental runs, read-out: average IC50, DNMT3B breaklight assay

Row | IC50 (human full length DNMT1) | IC50 (human DNMT3a/3l; [2]) | IC50 (human DNMT3a/3l; [3]) | IC50 (DNMT3B; [4]) | IC50 (DNMT3B; [5]) | EC50 (MV-4-11 AML cells) | SMILES | other results
1 | – | > 500 µM | – | > 500 µM | – | 1 to 31.6 µM | CC(Sc1nc(N2CCCNCC2)c(C#N)c(C2CC2)c1C#N)C(N)=O (centres unmarked) [Example 46, 2-((3,5-dicyano-4-cyclopropyl-6-(1,4-diazepan-1-yl)pyridin-2-yl)thio)propanamide] | –
2 | 0.89 µM | > 500 µM | – | > 500 µM | – | – | CCc1c(C#N)c(SC(C(N)=O)c2ccccc2)nc(N2CCC(O)CC2)c1C#N (centres unmarked) [Example 48, 2-((3,5-Dicyano-4-ethyl-6-(4-hydroxypiperidin-1-yl)pyridin-2-yl)thio)-2-phenylacetamide] | –
3 | – | > 500 µM | – | 272 µM | – | 1 to 31.6 µM | CCc1c(C#N)c(SC(C(N)=O)c2ccccc2)nc(N2CCNCC2)c1C#N (centres unmarked) [Example 55, 2-((3,5-Dicyano-4-ethyl-6-(piperazin-1-yl)pyridin-2-yl)thio)-2-phenylacetamide] | –
4 | ≤ 0.5 µM | > 500 µM | > 500 µM | > 500 µM | > 500 µM | 1 to 31.6 µM | CCc1c(C#N)c(SC(C(N)=O)c2ccccc2)nc(N2CCCN(C)CC2)c1C#N (centres unmarked) [Example 56, 2-((3,5-Dicyano-4-ethyl-6-(4-methyl-1,4-diazepan-1-yl)pyridin-2-yl)thio)-2-phenylacetamide] | –
5 | – | > 500 µM | – | > 500 µM | – | 0.316 to 1 µM | CCc1c(C#N)c(SC(C(N)=O)c2ccccc2)nc(N2CCOCC2)c1C#N (centres unmarked) [Example 57, 2-((3,5-Dicyano-4-ethyl-6-morpholinopyridin-2-yl)thio)-2-phenylacetamide] | –
6 | > 0.75 µM | – | – | – | – | 1 to 31.6 µM | N#Cc1c(SC(C(N)=O)c2ccccc2)nc(N2CCOC(CO)C2)c(C#N)c1C1CC1 (centres unmarked) [Example 63, 2-((3,5-Dicyano-4-cyclopropyl-6-(2-(hydroxymethyl)morpholino)pyridin-2-yl)thio)-2-phenylacetamide] | –

The next lines start with the compound.

Row | SMILES | IC50 (human full length DNMT1) | IC50 (human DNMT3a/3l; [2]) | IC50 (human DNMT3a/3l; [3]) | IC50 (DNMT3B; [4]) | IC50 (DNMT3B; [5]) | EC50 (MV-4-11 AML cells) | other results
7 | CCc1c(C#N)c(SC(C(N)=O)c2ccccc2)nc(N(C)C)c1C#N (centres unmarked) [Compound A, 2-{[3,5-dicyano-6-(dimethylamino)-4-ethylpyridin-2-yl]sulfanyl}-2-phenylacetamide] | – | – | – | – | – | – | % F-RBCs (SCD transgenic mice): dose dependent increases; % F-reticulocytes (SCD transgenic mice): dose dependent increases; increase in % F RBCs ([1]; 10 mg/kg BID oral, p<0.001): 6 fold; increase in % F reticulocytes ([1]; 10 mg/kg BID oral, p<0.001): 4 fold; increase in % HbF protein ([1]; 10 mg/kg BID oral, p<0.05): 5.4 fold; increase in % F RBCs ([1]; 50 mg/kg BID oral, p<0.001): 8 fold; increase in % F reticulocytes ([1]; 50 mg/kg BID oral, p<0.001): 9 fold; increase in % HbF protein ([1]; 50 mg/kg BID oral, p<0.001): 10.3 fold
8 | CCc1c(C#N)c(SC(C(N)=O)c2ccccc2)nc(N2CCNC(=O)CC2)c1C#N (centres unmarked) [Example 8, 2-{[3,5-dicyano-4-ethyl-6-(5-oxo-1,4-diazepan-1-yl)pyridin-2-yl]sulfanyl}-2-phenylacetamide] | > 0.75 µM | > 500 µM | > 500 µM | > 500 µM | > 500 µM | 1 to 31.6 µM | –
9 | N#Cc1c(SC(C(N)=O)c2ccncc2)nc(N2CCOCC2)c(C#N)c1C1CC1 (centres unmarked) [Example 9, 2-((3,5-dicyano-4-cyclopropyl-6-morpholinopyridin-2-yl)thio)-2-(pyridin-4-yl)acetamide] | > 0.75 µM | > 500 µM | > 500 µM | > 500 µM | > 500 µM | – | –
10 | CCc1c(C#N)c(SC(C(N)=O)c2ccccc2)nc(N2CCN(CC)CC2)c1C#N (centres unmarked) [Example 35, 2-((3,5-dicyano-4-ethyl-6-(4-ethylpiperazin-1-yl)pyridin-2-yl)thio)-2-phenylacetamide] | > 0.75 µM | > 500 µM | > 500 µM | > 500 µM | > 500 µM | – | –
11 | CCc1c(C#N)c(SC(C(N)=O)c2ccccc2)nc(N2CCC23CCNCC3)c1C#N (centres unmarked) [Example 38, 2-((3,5-Dicyano-4-ethyl-6-(1,7-diazaspiro[3.5]nonan-1-yl)pyridin-2-yl)thio)-2-phenylacetamide trifluoroacetate] | > 0.75 µM | – | – | – | – | 1 to 31.6 µM | –
12 | CN1CCN(C2CCN(c3nc(SC(C(N)=O)c4ccccc4)c(C#N)c(C4CC4)c3C#N)CC2)CC1 (centres unmarked) [Example 40, 2-((3,5-Dicyano-4-cyclopropyl-6-(4-(4-methylpiperazin-1-yl)piperidin-1-yl)pyridin-2-yl)thio)-2-phenylacetamide] | ≤ 0.5 µM | – | – | – | – | 0.316 to 1 µM | –
13 | CCc1c(C#N)c(N[C@@H](C(N)=O)c2ccccc2)nc(N2CCCNCC2)c1C#N [Example 41, (R)-2-((3,5-dicyano-6-(1,4-diazepan-1-yl)-4-ethylpyridin-2-yl)amino)-2-phenylacetamide] | > 0.75 µM | > 500 µM | > 500 µM | > 500 µM | > 500 µM | – | –
14 | CN1CCN(CC2CCN(c3nc(SC(C(N)=O)c4ccccc4)c(C#N)c(C4CC4)c3C#N)CC2)CC1 (centres unmarked) [Example 125, 2-((3,5-Dicyano-4-cyclopropyl-6-(4-((4-methylpiperazin-1-yl)methyl)piperidin-1-yl)pyridin-2-yl)thio-2-phenylacetamide trifluoroacetate] | – | 322 µM | – | 75 µM | – | 0.316 to 1 µM | –
